The values below come from PMC9500072, “Topical application of an irreversible small molecule inhibitor of lysyl oxidases ameliorates skin scarring and fibrosis” (Nature Communications, 2022).

Where two headings read alike, the source gives them in different places.

Assay [1] concerns the target T1, Human Recombinant MAO-A (Homo sapiens, UniProt P21397).
T1 sequence (P21397 1-527): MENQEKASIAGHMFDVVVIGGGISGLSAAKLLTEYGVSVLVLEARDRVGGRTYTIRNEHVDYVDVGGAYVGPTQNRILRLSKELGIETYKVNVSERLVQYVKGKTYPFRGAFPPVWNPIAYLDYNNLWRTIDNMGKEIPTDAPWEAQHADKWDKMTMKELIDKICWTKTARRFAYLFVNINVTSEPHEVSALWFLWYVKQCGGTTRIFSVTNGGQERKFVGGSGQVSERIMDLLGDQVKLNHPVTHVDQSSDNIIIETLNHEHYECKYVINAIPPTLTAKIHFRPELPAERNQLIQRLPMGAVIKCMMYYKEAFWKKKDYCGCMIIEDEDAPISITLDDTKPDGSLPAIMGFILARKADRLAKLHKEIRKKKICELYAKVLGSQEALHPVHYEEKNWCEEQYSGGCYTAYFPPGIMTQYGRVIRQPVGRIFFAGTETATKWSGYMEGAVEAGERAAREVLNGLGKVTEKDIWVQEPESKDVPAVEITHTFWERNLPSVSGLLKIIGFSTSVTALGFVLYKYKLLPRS
Put plainly: Amine oxidase inhibition profile, MAO-A. The format is biochemical. The source says: Supplem entary Materi als:
Supplementary Table S1: Amine oxidase inhibition profile of PXS -4787, PXS-6302 and
Supplementary Table S2: Perm eability profile of PXS -6302.

Assay [2] has as its target T2, recombinant human LOXL4 (Homo sapiens, UniProt Q96JB6).
T2 construct: Dr. Fernando Rodríguez Pascual, university of Madrid, Spain (academic provider)
T2 sequence (Q96JB6 25-756): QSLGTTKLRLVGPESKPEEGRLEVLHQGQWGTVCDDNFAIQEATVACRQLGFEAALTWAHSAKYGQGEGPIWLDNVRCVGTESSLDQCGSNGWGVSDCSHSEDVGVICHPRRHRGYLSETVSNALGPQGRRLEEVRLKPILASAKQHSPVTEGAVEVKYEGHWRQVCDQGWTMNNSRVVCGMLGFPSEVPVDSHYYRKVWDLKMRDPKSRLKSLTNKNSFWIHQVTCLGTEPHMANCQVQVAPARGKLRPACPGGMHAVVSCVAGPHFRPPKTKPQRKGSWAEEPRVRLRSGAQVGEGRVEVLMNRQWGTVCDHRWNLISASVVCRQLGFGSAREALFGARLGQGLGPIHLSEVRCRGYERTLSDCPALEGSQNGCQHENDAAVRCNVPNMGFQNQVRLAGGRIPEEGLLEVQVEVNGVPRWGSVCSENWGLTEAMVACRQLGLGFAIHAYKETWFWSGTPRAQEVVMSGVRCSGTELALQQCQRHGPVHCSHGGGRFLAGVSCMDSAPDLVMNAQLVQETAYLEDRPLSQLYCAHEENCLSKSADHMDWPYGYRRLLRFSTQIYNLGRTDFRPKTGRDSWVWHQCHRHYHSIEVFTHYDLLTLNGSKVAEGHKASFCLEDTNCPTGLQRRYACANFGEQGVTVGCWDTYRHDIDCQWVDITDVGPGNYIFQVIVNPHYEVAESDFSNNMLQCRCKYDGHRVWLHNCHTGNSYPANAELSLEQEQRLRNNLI
In words: Amplex Red oxidation assay, LOXL4 inhibition. The class given is biochemical. As to the method: The measurement of the enzymatic activity of all lysyl oxidase family members was based on the detection of hydrogen peroxide with an Amplex-Red oxidation assay, as previously described; miniaturized in 384 well formats, with the appropriate combination of substrate and assay buffer for each individual enzyme. After a 30 min pre-incubation of the enzyme at 37 °C with the test compound (or with different incubation times for the time-dependency assay), one volume of reaction mixture containing 120 μM Amplex Red (AR) (Life Technologies), 1.5 U/mL horseradish peroxidase (HRP) (Sigma-Aldrich) and the specific substrate was added to each sample. The relative fluorescence units (RFU) were then measured every 2.5 min for 30 min at 37 °C, excitation 565 nm and emission 590, on a BMG Clariostar Microplate Reader. All the substrates were used at concentrations corresponding to their Km towards the corresponding enzyme, or with a range of different concentrations for the substrate competition experiments.
Lysyl oxidases assay buffer contained 1.2 M urea, 50 mM sodium borate buffer, pH 8.2 and 100 µM β-aminoproprionitrile (BAPN, Sigma-Aldrich) was used for low control.
Recombinant human LOXL1 was expressed and purified from cDNA (GeneArt) and 10 mM putrescine was used as substrate. Recombinant human and mouse LOXL2 (R&D Systems) were challenged with 5 mM putrescine (Sigma-Aldrich) as the substrate. Rat and dog recombinant LOXL2 were amplified and purified in house from HEK-293 clones kindly provided by Dr. Fernando Rodríguez Pascual, Madrid University, and used in the same conditions as for the human form. 2 mM putrescine was used as the substrate for recombinant human LOXL3 (R&D Systems) and LOXL4 (Dr. Fernando Rodríguez Pascual, university of Madrid, Spain) assays.

In assay [3] the target is Histamine H1 (Homo sapiens, UniProt P35367). In words: Eurofins panel 239610. The class given is binding.
In assay [4] the target is Transporter, Serotonin (5- Hydroxytryptamine) (SERT) (Homo sapiens, UniProt P31645). Put plainly: Eurofins panel 274030. The class given is binding.
Assay [5] addresses Glucocorticoid (Homo sapiens, UniProt P04150). In words: Eurofins panel 232030. The class given is binding.
The target in assay [6] is Dopamine D1 (Homo sapiens, UniProt P21728). Put plainly: Eurofins panel 219500. The class given is binding.
In assay [7] the target is Adenosine A2A (Homo sapiens, UniProt P29274). Put plainly: Eurofins panel 200610. The class given is binding.
Assay [8] relates to Androgen (Testosterone). In words: Eurofins panel 206000. The class given is binding, human.
Assay [9] has as its target Histamine H2 (Homo sapiens, UniProt P25021). Put plainly: Eurofins panel 239710. The class given is binding.
Assay [10] concerns the target Adrenergic α2A (Homo sapiens, UniProt P08913). Put plainly: Eurofins panel 203630. The format is binding.
Assay [11] concerns the target Transporter, Norepinephrine (NET) (Homo sapiens, UniProt P23975). Put plainly: Eurofins panel 204410. The class given is binding.
Assay [12] concerns GABAA, Flunitrazepam, Central. In words: Eurofins panel 226600. The format is binding, rat.
For assay [13], the target named is Opiate κ(OP2, KOP) (Homo sapiens, UniProt P41145). Put plainly: Eurofins panel 260210. The format is binding.
The test system of assay [14] is Sodium Channel, Site 2. Put plainly: Eurofins panel 279510. The format is binding, rat.
In assay [15] the test system is Glutamate, NMDA, Agonism. In words: Eurofins panel 232810. The format is binding, rat.
The mark [16] stands for this setting: read-out: Recombinant MAO-A IC50.
[17] abbreviates: 30 min pre-incubation, read-out: rh LOXL4 IC50.
The mark [18] stands for this setting: read-out: Human Recombinant LOXL4 pIC50±SD (converted).

Sequence of Dopamine D1 (P21728 whole entry): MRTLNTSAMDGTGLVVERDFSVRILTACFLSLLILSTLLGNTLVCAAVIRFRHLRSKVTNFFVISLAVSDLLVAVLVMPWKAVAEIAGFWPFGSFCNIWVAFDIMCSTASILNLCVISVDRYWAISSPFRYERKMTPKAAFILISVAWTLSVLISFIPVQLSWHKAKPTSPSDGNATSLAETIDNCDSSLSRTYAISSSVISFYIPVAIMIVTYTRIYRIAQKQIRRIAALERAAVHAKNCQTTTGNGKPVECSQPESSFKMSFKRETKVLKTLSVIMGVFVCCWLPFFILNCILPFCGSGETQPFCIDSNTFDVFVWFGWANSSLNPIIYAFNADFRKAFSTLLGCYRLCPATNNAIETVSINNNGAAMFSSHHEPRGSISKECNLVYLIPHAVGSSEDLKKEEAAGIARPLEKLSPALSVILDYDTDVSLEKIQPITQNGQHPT
Sequence of Glucocorticoid (P04150 whole entry): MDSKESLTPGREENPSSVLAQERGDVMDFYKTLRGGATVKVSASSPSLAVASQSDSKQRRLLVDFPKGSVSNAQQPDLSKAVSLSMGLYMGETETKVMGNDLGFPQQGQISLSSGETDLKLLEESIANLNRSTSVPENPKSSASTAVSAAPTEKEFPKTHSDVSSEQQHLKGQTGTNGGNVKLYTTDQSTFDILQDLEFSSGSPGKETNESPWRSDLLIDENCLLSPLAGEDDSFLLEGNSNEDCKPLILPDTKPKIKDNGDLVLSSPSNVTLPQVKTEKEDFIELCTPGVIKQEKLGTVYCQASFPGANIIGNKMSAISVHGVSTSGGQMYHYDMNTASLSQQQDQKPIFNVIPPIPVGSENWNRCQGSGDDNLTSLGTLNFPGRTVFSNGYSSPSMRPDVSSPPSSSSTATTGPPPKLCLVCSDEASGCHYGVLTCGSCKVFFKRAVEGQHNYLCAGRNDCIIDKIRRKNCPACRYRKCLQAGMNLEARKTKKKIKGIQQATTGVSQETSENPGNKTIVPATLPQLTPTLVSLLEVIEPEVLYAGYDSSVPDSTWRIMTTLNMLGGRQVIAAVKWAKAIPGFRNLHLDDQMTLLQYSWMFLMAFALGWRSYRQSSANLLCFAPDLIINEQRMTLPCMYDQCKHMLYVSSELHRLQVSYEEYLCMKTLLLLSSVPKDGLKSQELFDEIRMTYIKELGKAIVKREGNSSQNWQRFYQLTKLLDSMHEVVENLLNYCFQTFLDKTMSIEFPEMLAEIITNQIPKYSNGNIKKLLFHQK
Sequence of Adenosine A2A (P29274 whole entry): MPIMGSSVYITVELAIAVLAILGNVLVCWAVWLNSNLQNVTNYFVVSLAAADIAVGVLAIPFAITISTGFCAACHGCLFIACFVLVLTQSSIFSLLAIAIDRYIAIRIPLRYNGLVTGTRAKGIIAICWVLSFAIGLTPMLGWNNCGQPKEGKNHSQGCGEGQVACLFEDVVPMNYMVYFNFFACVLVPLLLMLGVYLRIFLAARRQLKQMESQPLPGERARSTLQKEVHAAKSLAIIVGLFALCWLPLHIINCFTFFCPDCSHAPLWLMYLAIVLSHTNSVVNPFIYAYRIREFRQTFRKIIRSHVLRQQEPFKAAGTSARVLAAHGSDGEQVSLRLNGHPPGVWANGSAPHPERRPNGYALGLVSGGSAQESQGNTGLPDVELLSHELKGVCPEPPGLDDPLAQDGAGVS
Sequence of Transporter, Serotonin (5- Hydroxytryptamine) (SERT) (P31645 whole entry): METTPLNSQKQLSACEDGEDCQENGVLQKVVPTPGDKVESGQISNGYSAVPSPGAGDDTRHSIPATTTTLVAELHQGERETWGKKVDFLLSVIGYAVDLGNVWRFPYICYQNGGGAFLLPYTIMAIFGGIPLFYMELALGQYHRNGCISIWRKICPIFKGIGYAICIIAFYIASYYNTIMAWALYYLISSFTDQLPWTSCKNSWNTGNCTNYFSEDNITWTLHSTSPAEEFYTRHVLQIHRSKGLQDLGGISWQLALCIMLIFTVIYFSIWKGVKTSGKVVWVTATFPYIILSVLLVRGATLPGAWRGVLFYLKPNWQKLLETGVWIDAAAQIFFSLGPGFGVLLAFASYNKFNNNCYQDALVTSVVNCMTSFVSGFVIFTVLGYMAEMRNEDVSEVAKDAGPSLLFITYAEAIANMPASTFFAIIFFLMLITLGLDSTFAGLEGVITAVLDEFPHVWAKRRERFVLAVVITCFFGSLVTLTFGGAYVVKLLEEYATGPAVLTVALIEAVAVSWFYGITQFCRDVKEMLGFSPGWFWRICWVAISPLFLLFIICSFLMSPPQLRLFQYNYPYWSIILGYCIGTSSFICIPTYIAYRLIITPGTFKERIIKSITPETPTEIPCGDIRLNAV
Sequence of Histamine H2 (P25021 whole entry): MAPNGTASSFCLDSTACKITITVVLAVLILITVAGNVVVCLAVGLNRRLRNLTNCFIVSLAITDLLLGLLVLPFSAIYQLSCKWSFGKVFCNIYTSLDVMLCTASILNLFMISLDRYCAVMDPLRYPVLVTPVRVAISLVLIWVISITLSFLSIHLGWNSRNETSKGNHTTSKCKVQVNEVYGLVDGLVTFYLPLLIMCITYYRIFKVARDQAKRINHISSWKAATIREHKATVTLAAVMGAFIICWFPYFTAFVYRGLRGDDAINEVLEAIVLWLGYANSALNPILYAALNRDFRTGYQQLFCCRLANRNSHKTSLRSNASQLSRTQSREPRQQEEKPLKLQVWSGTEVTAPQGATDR
Sequence of Histamine H1 (P35367 whole entry): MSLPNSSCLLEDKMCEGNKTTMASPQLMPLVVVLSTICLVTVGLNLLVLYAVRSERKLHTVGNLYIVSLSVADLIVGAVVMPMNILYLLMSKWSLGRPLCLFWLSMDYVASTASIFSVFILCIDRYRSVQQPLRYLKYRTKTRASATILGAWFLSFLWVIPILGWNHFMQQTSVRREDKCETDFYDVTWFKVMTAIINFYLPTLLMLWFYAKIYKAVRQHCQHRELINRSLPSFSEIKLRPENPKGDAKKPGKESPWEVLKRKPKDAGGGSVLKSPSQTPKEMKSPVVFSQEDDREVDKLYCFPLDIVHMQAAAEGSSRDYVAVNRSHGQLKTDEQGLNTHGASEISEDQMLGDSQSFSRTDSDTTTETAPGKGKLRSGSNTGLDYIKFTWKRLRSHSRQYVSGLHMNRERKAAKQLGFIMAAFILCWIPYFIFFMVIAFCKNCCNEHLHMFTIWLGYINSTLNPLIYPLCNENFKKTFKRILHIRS
Sequence of Transporter, Norepinephrine (NET) (P23975 whole entry): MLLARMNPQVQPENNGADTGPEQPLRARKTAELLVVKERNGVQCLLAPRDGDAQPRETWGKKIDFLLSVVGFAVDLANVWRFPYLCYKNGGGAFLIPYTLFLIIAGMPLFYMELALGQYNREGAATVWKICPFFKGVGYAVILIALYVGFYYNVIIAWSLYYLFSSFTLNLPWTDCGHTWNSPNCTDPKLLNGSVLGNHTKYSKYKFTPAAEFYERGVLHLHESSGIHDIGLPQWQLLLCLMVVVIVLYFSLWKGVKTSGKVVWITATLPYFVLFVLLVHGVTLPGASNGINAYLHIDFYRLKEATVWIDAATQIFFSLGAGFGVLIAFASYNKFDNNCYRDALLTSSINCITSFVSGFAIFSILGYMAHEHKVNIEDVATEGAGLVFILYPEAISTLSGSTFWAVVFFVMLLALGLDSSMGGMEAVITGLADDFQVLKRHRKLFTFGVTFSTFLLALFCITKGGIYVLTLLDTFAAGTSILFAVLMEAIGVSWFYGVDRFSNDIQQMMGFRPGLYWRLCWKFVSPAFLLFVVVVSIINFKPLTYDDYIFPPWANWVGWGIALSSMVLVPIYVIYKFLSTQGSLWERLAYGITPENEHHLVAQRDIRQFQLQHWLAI
Sequence of Adrenergic α2A (P08913 whole entry): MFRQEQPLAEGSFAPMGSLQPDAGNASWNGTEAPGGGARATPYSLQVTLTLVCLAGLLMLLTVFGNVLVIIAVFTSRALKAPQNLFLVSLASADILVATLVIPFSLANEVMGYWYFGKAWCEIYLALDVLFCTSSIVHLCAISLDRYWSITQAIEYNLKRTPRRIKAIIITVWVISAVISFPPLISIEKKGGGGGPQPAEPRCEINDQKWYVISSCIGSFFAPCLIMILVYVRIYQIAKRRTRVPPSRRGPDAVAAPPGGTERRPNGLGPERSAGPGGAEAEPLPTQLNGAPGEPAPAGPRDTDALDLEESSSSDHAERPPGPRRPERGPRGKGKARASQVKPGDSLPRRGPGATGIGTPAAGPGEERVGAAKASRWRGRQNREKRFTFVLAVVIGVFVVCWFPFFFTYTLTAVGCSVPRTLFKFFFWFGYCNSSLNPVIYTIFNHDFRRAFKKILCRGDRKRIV
Sequence of Opiate κ(OP2, KOP) (P41145 whole entry): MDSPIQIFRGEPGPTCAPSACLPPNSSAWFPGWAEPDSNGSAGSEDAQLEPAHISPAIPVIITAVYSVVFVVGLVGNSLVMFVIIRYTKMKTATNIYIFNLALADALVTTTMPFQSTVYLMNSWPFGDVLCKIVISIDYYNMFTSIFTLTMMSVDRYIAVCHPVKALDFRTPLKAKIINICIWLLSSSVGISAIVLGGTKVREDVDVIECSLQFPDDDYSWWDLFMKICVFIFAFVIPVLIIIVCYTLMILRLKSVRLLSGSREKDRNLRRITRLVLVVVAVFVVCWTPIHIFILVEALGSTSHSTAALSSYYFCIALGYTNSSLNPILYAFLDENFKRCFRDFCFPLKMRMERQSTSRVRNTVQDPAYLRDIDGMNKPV

As for `N#CCCN` [BAPN, β-aminoproprionitrile, reference compound], in assay [1], the “Recombinant MAO-A pIC50” value is reported as below 4.5. Also, the IC50 was above 30 µM in [1] (setting [16]) and 280 nM in [2] (setting [17]). The “Human Recombinant LOXL4 pIC50±SD” value in assay [2] was 6.6 ± 0.1.

With `NC/C=C(\F)CS(=O)(=O)c1ccccc1` [PXS-4787], the inhibition at 10 µM was 14% in assay [3] (10 µM); 8% in assay [4] (10 µM); 3% in assay [5] (10 µM); 3% in [6] (10 µM); 15% in [7] (10 µM); -4% in [9] (10 µM). In addition, the inhibition at 10 µM was determined as 1% in [10] (10 µM); 101% in assay [2] (log conc -5, read-out: Fig 2A inhibition (mean)); 24% in assay [11] (10 µM); 3% in [13] (10 µM). Besides, the IC50 is above 30 µM in [1] (setting [16]), 220 nM in [2] (setting [17]) and 200 nM in [2] (setting [18]). Besides, the “% Inh.” value in assay [8] (10 µM) is given as 2%; in assay [12] (10 µM) it was -1%; in assay [14] (10 µM), 13%; in assay [15] (10 µM), 2%. Further, in assay [2] (log conc -4.5229, read-out: Fig 2A inhibition (mean)), the inhibition at 30 µM was 102%. Moreover, the inhibition at 3.333 µM in [2] (log conc -5.4771, read-out: Fig 2A inhibition (mean)) was determined as 98.6%. Besides, the inhibition at 1.111 µM in assay [2] (log conc -5.9542, read-out: Fig 2A inhibition (mean)) was found to be 89.8%. The inhibition at 0.3704 µM in assay [2] (log conc -6.4313, read-out: Fig 2A inhibition (mean)) is 66.3%. Also, in assay [2] (log conc -6.9083, read-out: Fig 2A inhibition (mean)), the inhibition at 0.1235 µM worked out at 36.5%. For the same compound, the inhibition at 0.0412 µM in [2] (log conc -7.3851, read-out: Fig 2A inhibition (mean)) amounted to 14.1%. Moreover, the inhibition at 0.0137 µM in assay [2] (log conc -7.8633, read-out: Fig 2A inhibition (mean)) turned out to be 8.84%. The inhibition at 0.0046 µM in assay [2] (log conc -8.3372, read-out: Fig 2A inhibition (mean)) is 2.39%. Moreover, the inhibition at […] in [2] (log conc -8.8239, read-out: Fig 2A inhibition (mean)) turned out to be 0.738%. The inhibition at 0.0005 µM in assay [2] (log conc -9.301, read-out: Fig 2A inhibition (mean)) was -0.645%.

`NC/C=C(\F)C(F)(F)S(=O)(=O)c1ccccc1` [PXS-6302]: the inhibition at 30 µM in [3] (read-out: % Inh.) was 10%; in assay [4] (read-out: % Inh.), 20%; in assay [5] (read-out: % Inh.), 13%; in [6] (read-out: % Inh.) it was 0%; in assay [7] (read-out: % Inh.), -6%; in assay [9] (read-out: % Inh.) it was 5%. Further, the figures for the inhibition at 30 µM in assay [10] (read-out: % Inh.), in assay [11] (read-out: % Inh.) and in [13] (read-out: % Inh.) were 17%, 55% and 10%, respectively. Also, the IC50 in assay [1] is above 30 µM; in assay [2] (setting [17]) it was 320 nM; in assay [2] (setting [18]), 316 nM. Further, the “% Inh.” value in assay [8] (30 µM) is -14%; in [12] (30 µM), 4%; in assay [14] (30 µM) it was 66%; in assay [15] (30 µM), -16%.
